This note sets out measurements from ChEMBL document CHEMBL4828770, “Structural and Activity Relationships of 6-Sulfonyl-8-Nitrobenzothiazinones as Antitubercular Agents” (J Med Chem, 2021).

Activity calls are given as the source filed them. The calls are words filed in the database; no cut-off is given here.

The target of data set [1] is T1, Decaprenylphosphoryl-beta-D-ribose oxidase (Mycobacterium tuberculosis (strain ATCC 25618 / H37Rv)) (UniProt P9WJF1).
T1 sequence (whole entry): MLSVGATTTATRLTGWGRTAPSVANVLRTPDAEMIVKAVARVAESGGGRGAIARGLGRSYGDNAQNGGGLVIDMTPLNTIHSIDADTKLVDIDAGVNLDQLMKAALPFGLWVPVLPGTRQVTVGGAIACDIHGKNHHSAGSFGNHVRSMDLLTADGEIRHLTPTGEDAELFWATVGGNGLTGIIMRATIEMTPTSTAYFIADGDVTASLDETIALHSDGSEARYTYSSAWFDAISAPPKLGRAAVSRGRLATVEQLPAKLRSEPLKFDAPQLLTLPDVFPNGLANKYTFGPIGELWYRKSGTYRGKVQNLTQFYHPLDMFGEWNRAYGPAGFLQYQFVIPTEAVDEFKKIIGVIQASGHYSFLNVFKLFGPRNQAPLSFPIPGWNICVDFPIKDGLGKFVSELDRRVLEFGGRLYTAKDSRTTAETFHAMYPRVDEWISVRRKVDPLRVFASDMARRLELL
Nature of the data set: Inhibition of Mycobacterium tuberculosis H37Rv DprE1 assessed as increase in trehalose monomycolates accumulation at 100 x MIC incubated for 24 hrs using [14C]acetate by TLC based metabolic labelling assay.

A short description of data set [2]: Metabolic stability in human liver microsomes assessed as half life in presence of NADPH by LC/MS analysis. The format is ADME, Microsome.
Data set [3] addresses T1, Decaprenylphosphoryl-beta-D-ribose oxidase (Mycobacterium tuberculosis (strain ATCC 25618 / H37Rv)). Nature of the data set: Inhibition of Mycobacterium tuberculosis H37Rv DprE1 assessed as increase in trehalose dimycolates accumulation at 100 x MIC incubated for 24 hrs using [14C]acetate by TLC based metabolic labelling assay.
Data set [4] relates to Mycobacterium tuberculosis. In words: Antimycobacterial activity against Mycobacterium tuberculosis H37Rv ACTT 25618 assessed as inhibition of visible growth incubated for 7 days by micro plate alamar blue assay. The format is functional. Conditions: H37Rv ACTT 25618, 168 h, time 7 day.
Data set [5] has as its target T2, Decaprenylphosphoryl-beta-D-ribose oxidase (Mycobacterium tuberculosis (strain ATCC 25618 / H37Rv), UniProt P9WJF1).
T2 sequence (P9WJF1 whole entry): T1 sequence (whole entry)
In words: Inhibition of Mycobacterium tuberculosis recombinant DprE1 expressed in Escherichia coli assessed as formation of resorufin using FPR as substrate by Amplex Red […] coupled assay.

Another data set deals with HepG2. In words: Cytotoxicity against human HepG2 cells assessed as cell viability incubated for 48 hrs by CCK-8 assay. The format is cell-based. Conditions: hepg2, 48 h.
A short description of data set [6]: Metabolic stability in human liver microsomes assessed as clearance in presence of NADPH by LC/MS analysis. It counts as ADME, Microsome. Conditions: read-out: CLH.

In the case of `CN(Cc1nnc(-c2ccccc2)o1)c1nc(=O)c2cc(S(C)(=O)=O)cc([N+](=O)[O-])c2s1`, the result in data set [1] and in data set [3] was Active. Besides, the half-life in data set [2] was 45.9 min. In addition, the minimum inhibitory concentration (MIC) in data set [4] was determined as 0.03 µM. Moreover, in data set [5], the IC50 was determined as 2100 nM. Besides, the Activity result in the data set on HepG2 was “Non-Toxic”. In data set [6], the CLint scaled worked out at 37.8 mL/min/kg.

As to `CN(Cc1cn(-c2ccccc2F)nn1)c1nc(=O)c2cc(S(C)(=O)=O)cc([N+](=O)[O-])c2s1`, the minimum inhibitory concentration (MIC) in data set [4] is 0.031 µM. In the case of `CN(Cc1csc(-c2cccc(F)c2)n1)c1nc(=O)c2cc(S(C)(=O)=O)cc([N+](=O)[O-])c2s1`, the minimal inhibitory concentration (MIC) in data set [4] turned out to be 0.024 µM. Still for that read-out and setting: the result for `CN(Cc1cn(-c2c(F)cccc2F)nn1)c1nc(=O)c2cc(S(C)(=O)=O)cc([N+](=O)[O-])c2s1` reads 0.28 µM; that for `CN(Cc1nnc(-c2cccc(F)c2)o1)c1nc(=O)c2cc(S(C)(=O)=O)cc([N+](=O)[O-])c2s1`, 0.049 µM. For the compound `CN(Cc1csc(-c2ccc(F)cc2)n1)c1nc(=O)c2cc(S(C)(=O)=O)cc([N+](=O)[O-])c2s1`, the minimal inhibitory concentration (MIC) in data set [4] amounted to 0.057 µM. For `C[C@@H](c1cn(-c2ccccc2)nn1)N(C)c1nc(=O)c2cc(S(C)(=O)=O)cc([N+](=O)[O-])c2s1`, in data set [4], the minimum inhibitory concentration (MIC) was found to be 0.252 µM. Still for that read-out and setting: as for `CN(Cc1cn(-c2cccc(F)c2)nn1)c1nc(=O)c2cc(S(C)(=O)=O)cc([N+](=O)[O-])c2s1`, the figure is 0.014 µM; as for `CN(Cc1cn(-c2ccc(F)c(F)c2)nn1)c1nc(=O)c2cc(S(C)(=O)=O)cc([N+](=O)[O-])c2s1`, 0.022 µM.

Take `CN(Cc1coc(C2CCCCC2)n1)c1nc(=O)c2cc(S(C)(=O)=O)cc([N+](=O)[O-])c2s1`: the MIC in data set [4] stood at 0.433 µM. `CN(Cc1nnc(-c2ccc(F)cc2F)s1)c1nc(=O)c2cc(S(C)(=O)=O)cc([N+](=O)[O-])c2s1`: the MIC in data set [4] amounted to 0.023 µM. As to `CN(Cc1cn(-c2cccc(C#N)c2)nn1)c1nc(=O)c2cc(S(C)(=O)=O)cc([N+](=O)[O-])c2s1`, the minimum inhibitory concentration (MIC) in data set [4] came to 0.048 µM. As for `CN(Cc1nnc(-c2cc(F)cc(F)c2)s1)c1nc(=O)c2cc(S(C)(=O)=O)cc([N+](=O)[O-])c2s1`, the MIC in data set [4] was determined as 0.023 µM. On the same count and under the same terms, the result for `CN(Cc1cn(Cc2ccccc2)nn1)c1nc(=O)c2cc(S(C)(=O)=O)cc([N+](=O)[O-])c2s1` reads 0.309 µM. For the compound `CN(Cc1cn(-c2ccccc2)nn1)c1nc(=O)c2cc(S(C)(=O)=O)cc([N+](=O)[O-])c2s1`, the outcome in data set [1] and in data set [3] was Active. Also, the half-life in data set [2] came out at 53.7 min. The MIC in data set [4] amounted to 0.0006 µM. Further, the IC50 in data set [5] came to 780 nM. For the same compound, the Activity result in the data set on HepG2 was “Non-Toxic”. Further, in data set [6], the CLint scaled worked out at 32.4 mL/min/kg. With `O=c1nc(N2CCN(CC3CCCCC3)CC2)sc2c([N+](=O)[O-])cc(C(F)(F)F)cc12` [MACOZINONE], the half-life in data set [2] is 76.3 min. Also, in data set [4], the MIC was < 0.2 ng/mL. In data set [6], the CLint scaled turned out to be 22.8 mL/min/kg. Turning to `COc1cccc(-n2cc(CN(C)c3nc(=O)c4cc(S(C)(=O)=O)cc([N+](=O)[O-])c4s3)nn2)c1`, the minimum inhibitory concentration (MIC) in data set [4] was 0.199 µM. Take `CN(Cc1nnc(-c2ccccc2)s1)c1nc(=O)c2cc(S(C)(=O)=O)cc([N+](=O)[O-])c2s1`: the half-life in data set [2] is 13.2 min. The MIC in data set [4] came to 0.037 µM. Further, the CLint scaled in data set [6] was found to be 128 mL/min/kg. As to `CN(Cc1nnc(-c2ccc(F)c(F)c2)s1)c1nc(=O)c2cc(S(C)(=O)=O)cc([N+](=O)[O-])c2s1`, the minimum inhibitory concentration (MIC) in data set [4] came to 0.031 µM.

Turning to `CN(Cc1cn(-c2cccc(C(F)(F)F)c2)nn1)c1nc(=O)c2cc(S(C)(=O)=O)cc([N+](=O)[O-])c2s1`, the minimum inhibitory concentration (MIC) in data set [4] turned out to be 0.044 µM. On the same count and under the same terms, the result for `CCS(=O)(=O)c1cc([N+](=O)[O-])c2sc(N3CCN(CC4CCCCC4)CC3)nc(=O)c2c1` reads < 0.001 µM; that for `CN(CCN(C)c1nc(=O)c2cc(S(C)(=O)=O)cc([N+](=O)[O-])c2s1)CC1CCCCC1`, 0.148 µM. In the case of `CN(Cc1cn(C2CCCCC2)nn1)c1nc(=O)c2cc(S(C)(=O)=O)cc([N+](=O)[O-])c2s1`, the MIC in data set [4] turned out to be 0.047 µM. Still for that read-out and setting: the result for `CCN(Cc1cn(-c2ccccc2)nn1)c1nc(=O)c2cc(S(C)(=O)=O)cc([N+](=O)[O-])c2s1` reads 0.201 µM; that for `CN(Cc1nnc(-c2cc(F)cc(F)c2)o1)c1nc(=O)c2cc(S(C)(=O)=O)cc([N+](=O)[O-])c2s1`, 0.022 µM; that for `CN(Cc1ccccc1)c1nc(=O)c2cc(S(C)(=O)=O)cc([N+](=O)[O-])c2s1`, 0.253 µM. In the case of `CN(Cc1nnc(-c2ccc(F)cc2)s1)c1nc(=O)c2cc(S(C)(=O)=O)cc([N+](=O)[O-])c2s1`, the MIC in data set [4] worked out at 0.047 µM. As to `CN(Cc1cn(-c2cccnc2)nn1)c1nc(=O)c2cc(S(C)(=O)=O)cc([N+](=O)[O-])c2s1`, the MIC in data set [4] stood at 0.533 µM.

On to `CN(Cc1cn(-c2ccc(F)cc2F)nn1)c1nc(=O)c2cc(S(C)(=O)=O)cc([N+](=O)[O-])c2s1`, for which, in data set [4], the minimum inhibitory concentration (MIC) stood at 0.024 µM.

As for `CN(Cc1cn(-c2cccc(I)c2)nn1)c1nc(=O)c2cc(S(C)(=O)=O)cc([N+](=O)[O-])c2s1`, the MIC in data set [4] is 0.055 µM. Regarding `CS(=O)(=O)c1cc([N+](=O)[O-])c2sc(N3CCN(CC4CCCCC4)CC3)nc(=O)c2c1`, the half-life in data set [2] was 25.8 min. Further, the CLint scaled in data set [6] was found to be 89.8 mL/min/kg.

For the compound `CN(Cc1coc(-c2ccc(F)cc2)n1)c1nc(=O)c2cc(S(C)(=O)=O)cc([N+](=O)[O-])c2s1`, the MIC in data set [4] is 0.031 µM.

As to `CN(Cc1nnc(-c2cccc(F)c2)s1)c1nc(=O)c2cc(S(C)(=O)=O)cc([N+](=O)[O-])c2s1`, the minimal inhibitory concentration (MIC) in data set [4] turned out to be 0.045 µM. Regarding `CC(C)S(=O)(=O)c1cc([N+](=O)[O-])c2sc(N3CCN(CC4CCCCC4)CC3)nc(=O)c2c1`, the MIC in data set [4] is < 0.001 µM. For the compound `CN(Cc1ccc2c(c1)OCCO2)c1nc(=O)c2cc(S(C)(=O)=O)cc([N+](=O)[O-])c2s1`, the MIC in data set [4] was determined as 0.066 µM.

As to `CN(Cc1nnc(-c2ccc(F)cc2F)o1)c1nc(=O)c2cc(S(C)(=O)=O)cc([N+](=O)[O-])c2s1`, in data set [4], the minimal inhibitory concentration (MIC) is 0.045 µM. With `CN(Cc1cn(-c2cc(F)ccc2F)nn1)c1nc(=O)c2cc(S(C)(=O)=O)cc([N+](=O)[O-])c2s1`, the minimum inhibitory concentration (MIC) in data set [4] is 0.011 µM. On the same count and under the same terms, as for `CN(Cc1nnc(-c2ccc(F)cc2)o1)c1nc(=O)c2cc(S(C)(=O)=O)cc([N+](=O)[O-])c2s1`, the figure is 0.061 µM; as for `CN(Cc1cn(-c2cccc(Br)c2)nn1)c1nc(=O)c2cc(S(C)(=O)=O)cc([N+](=O)[O-])c2s1`, 0.044 µM.

With `CN(Cc1csc(-c2ccccc2)n1)c1nc(=O)c2cc(S(C)(=O)=O)cc([N+](=O)[O-])c2s1`, the half-life in data set [2] is 16.2 min. The MIC in data set [4] turned out to be 0.023 µM. The CLint scaled in data set [6] came out at 107 mL/min/kg. Turning to `CN(Cc1nnc(-c2ccc(F)c(F)c2)o1)c1nc(=O)c2cc(S(C)(=O)=O)cc([N+](=O)[O-])c2s1`, the MIC in data set [4] is 0.043 µM. On the same count and under the same terms, the result for `Cc1cccc(-n2cc(CN(C)c3nc(=O)c4cc(S(C)(=O)=O)cc([N+](=O)[O-])c4s3)nn2)c1` reads 0.1 µM; that for `Cc1ccc(-n2cc(CN(C)c3nc(=O)c4cc(S(C)(=O)=O)cc([N+](=O)[O-])c4s3)nn2)cc1`, 0.115 µM. The same measure, in the same setting: the result for `CN(c1nc(=O)c2cc(S(C)(=O)=O)cc([N+](=O)[O-])c2s1)C1(c2cn(-c3ccccc3)nn2)CC1` reads > 4 µM. With `CN(Cc1cn(Cc2cnoc2)nn1)c1nc(=O)c2cc(S(C)(=O)=O)cc([N+](=O)[O-])c2s1`, in data set [4], the minimum inhibitory concentration (MIC) was > 2 µM. Same read-out and setting: as for `CN(Cc1cn(-c2cccc(Cl)c2)nn1)c1nc(=O)c2cc(S(C)(=O)=O)cc([N+](=O)[O-])c2s1`, the figure is 0.089 µM. Take `C[C@H](c1cn(-c2ccccc2)nn1)N(C)c1nc(=O)c2cc(S(C)(=O)=O)cc([N+](=O)[O-])c2s1`: the MIC in data set [4] is > 4.2 µM. On to `CN(Cc1coc(-c2ccccc2)n1)c1nc(=O)c2cc(S(C)(=O)=O)cc([N+](=O)[O-])c2s1`, for which the half-life in data set [2] is 21 min. Also, the minimal inhibitory concentration (MIC) in data set [4] was found to be 0.021 µM. Further, in data set [5], the IC50 came to 940 nM. Besides, in data set [6], the CLint scaled came to 82.7 mL/min/kg. For the compound `CN(Cc1cn(-c2cnoc2)nn1)c1nc(=O)c2cc(S(C)(=O)=O)cc([N+](=O)[O-])c2s1`, the MIC in data set [4] came out at 0.065 µM. For `CN(Cc1cn(-c2ccc(F)cc2)nn1)c1nc(=O)c2cc(S(C)(=O)=O)cc([N+](=O)[O-])c2s1`, in data set [4], the MIC is 0.024 µM. For the compound `CN(Cc1cn(-c2cc(F)cc(F)c2)nn1)c1nc(=O)c2cc(S(C)(=O)=O)cc([N+](=O)[O-])c2s1`, in data set [4], the MIC is 0.022 µM.
